Numbers after ± are expanded uncertainties.
Assay: cn = amount concentration of the nth substance listed, in mol/dm3
Details: 298.2 K, 101 kPa, Liquid, Pycnometric method

Nc1nnc(-c2cccc(Cl)c2Cl)c(N)n1 [lamotrigine] + CC(C)=O
mass density (c1 = 0.0167): 852.8 ± 6.9 kg/m3

Nc1nnc(-c2cccc(Cl)c2Cl)c(N)n1 [lamotrigine] + CCCO
mass density (c1 = 0.0245): 893.8 ± 7.2 kg/m3

Nc1nnc(-c2cccc(Cl)c2Cl)c(N)n1 [lamotrigine] + CCO
mass density (c1 = 0.0134): 851.7 ± 6.8 kg/m3

Nc1nnc(-c2cccc(Cl)c2Cl)c(N)n1 [lamotrigine] + CCOC(C)=O
mass density (c1 = 0.0106): 995.4 ± 8 kg/m3

Nc1nnc(-c2cccc(Cl)c2Cl)c(N)n1 [lamotrigine] + CO
mass density (c1 = 0.0199): 834.7 ± 6.7 kg/m3

— the NIST ThermoML archive (doi:10.1021/acs.jced.5b00355)
